One series concerns CD-1 mice. Kind of series: Acute toxicity, single intraperitoneal injection. The class given is in vivo, mouse. The conditions noted are these: single intraperitoneal injection 2.8, 14, 70, 350 mg/kg. The source says: (§1) FIG. S7. Toxicity of AX-024 in mice and rats. (A) Effect of distinct single doses of AX024. HCl administered intraperitoneally on body weight gain of CD-1 mice over 14 days. The data represent the mean±s.e.m. (n=10 per group). (B) Effect of distinct single doses of AX024. HCl administered orally on body weight gain of Swiss albino mice over 14 days. The data represent the mean±s.e.m. (n=2 per group). (C) Effect of distinct single doses of AX-024. HCl administered per orally on body weight gain of Sprague Dawley rats over 14 days. The data represent the mean±s.e.m. (n=2 per group). (D) Summary of acute toxicological findings in different species and calculation of the human equivalent dose.
Acute toxicity: Eight-week-old CD-1 mice were injected intraperitoneally with different amounts of the hydrochloride salt of AX-024 (AX-024.HCl) dissolved in 0.5 ml of saline. All animals were observed clinically for the appearance of macroscopically visible adverse reactions twice daily over 14 days, as well as immediately after AX-024 administration. A necropsy was carried out on each animal on day 14, and the abdominal, thoracic, and cranial cavities were examined in situ, together with their associated organs.

The next series deals with Swiss albino mice. Kind of series: Toxicity after single oral dose, mice. The class given is in vivo, mouse.
From the text: as §1

Series [1] has as its system human peripheral blood T cells stimulated with anti-CD3. In words: Human blood T cell proliferation induced by anti-CD3 (CFSE dilution). The class given is cell-based.
Series [2] relates to EAE in MOG-immunized mice. In words: EAE model, therapeutic treatment. Type of series: in vivo, mouse. The conditions noted are these: oral, therapeutic setting.
Series [3] deals with Nck recruitment to the TCR. In words: Co-immunoprecipitation of endogenous Nck with the TCR. Type of series: cell-based. The settings on record: human blood T cells stimulated with anti-CD3. On the procedure: (§2) FIG. 2. Target specificity of AX-024. […] The experiment was repeated three times. […] RUs, response units.
For co-immunoprecipitation analysis of endogenous Nck, a total of […] enriched human blood T-cells were pre-incubated in serum-free RPMI medium with compound AX-024 before stimulation with soluble OKT3 (10 μg/ml) for 1 minute at 37° C. Cells were lysed as above, and immunoprecipitation was performed with OKT3 and protein A Sepharose beads. The resulting immunoprecipitated extracts were resolved in a 10% acrylamide SDS-PAGE gel for immunoblotting with a rabbit anti-Nck antibody and reprobed with anti-CD3ζ serum.

Series [4] concerns thymocytes of 4 week-old C57BL/6 mice. In words: Thymocyte differentiation in vivo. The settings on record: administration for 10 days to 4-week-old mice. More on the design: species or system mouse. On the procedure:
FIG. S8. Effect of AX-024 on thymocyte differentiation. (A) Flow cytometry analysis of CD24 and TCR expression in thymocytes of 4 week-old C57BL/6 mice exposed to daily doses of oral AX-024 (10 mg/Kg and 40 mg/Kg) or to vehicle alone for 10 consecutive days. Both markers allowed the thymocytes to be divided into five subpopulations (a to e) that were reanalyzed according to CD4 and CD8 expression (right). The data below indicates the percentages of double negative (DN, CD4^− CD8^−), double positive (DP, CD4^+ CD8^+) and single positive (CDSP, CD4^+ CD8^−; CD8SP. CD4^− CD8^+) thymocytes within each a-to-e subpopulation. The data represent the mean±s.e.m. (n=6 mice per group). (B) Absolute cell number in the major thymic DN, DP, CD4SP, CD8SP subpopulations of mice analyzed in A. Numbers of pre- and post-beta selection (DN3 and DN4) and γδT cells are also indicated

Series [5] relates to intracellular F-actin in human blood T cells. In words: TCR-triggered actin polymerization (phalloidin staining). The conditions noted are these: T-cell, read-out: IC50 of inhibition of the anti-CD3 elicited increase of intracellular F-actin. Type of series: cell-based.
For another series, the system named is Sprague Dawley rats. Kind of series: Toxicity after single oral dose, rats. The class given is in vivo.
From the text: as §1

Series [6] has as its system murine naïve spleen B cells. In words: B cell proliferation (CellTrace Violet). Type of series: cell-based, mouse. On the procedure: as §2
Proliferation was calculated according to the total number of cell divisions (by Cell-Trace Violet dilution).

Series [7] concerns the target CD3ε PRS peptide binding to immobilized SH3.1(Nck1) domain (Homo sapiens, UniProt P16333). Kind of series: Surface plasmon resonance. The settings on record: SPR, maximum steady-state response units; read-out: IC50 for the inhibition of CD3ε peptide binding. On the procedure: as §2
HBS-EP was used as the running buffer (10 mM HEPES [pH 7.4], 150 mM NaCl, 3 mM EDTA, 0.005% [v/v] Surfactant P20). Immobilization of the GST-Nck1(SH3.1) purified recombinant protein (final concentration 30 μg/ml) was performed by the amino coupling strategy using sodium acetate (10 mM) at pH 4.5 and 150 μL of a solution of EDC/NHS (v/v), with optimum immobilization achieved at approximately 5000 resonance units. For interaction experiments, increasing concentrations of the CD3ε peptide […] and AX-024 were used on the same chip. In all cases, the flow rate was […]. After each interaction, 2.5 M glycine (pH 2) was used to regenerate the surface, and the analyte response after regeneration was constant after repeated injections in all the experiments and within ±10% of the response following the first injection.
(In general: SPR reads the build-up and loss of mass on a sensor chip optically.)

Series [8] has as its system purified human blood T cells stimulated with anti-CD3. In words: Microarray analysis of gene expression. The class given is cell-based. The settings on record: 1 nM, anti-CD3 4 hours, two donors. On the procedure:
RNA was extracted using the RNAeasy kit according to the manufacturer's instructions (QIAGEN 74134) and its integrity was assessed using an Agilent 2100 Bioanalyzer (Agilent). Labelling and hybridization were performed according to the protocols from Affymetrix. Briefly, 100 ng of total RNA were amplified and labelled using the WT Plus reagent kit (Affymetrix) and then hybridized to Human Gene 2.0 ST Array (Affymetrix). Washing and scanning were performed using the Affymetrix GeneChip System (GeneChip Hybridization Oven 645, GeneChip Fluidics Station 450 and GeneChip Scanner 7G).

The test system of a further series is ectromelia virus (ECTV). The settings on record: mouse, in vivo.
The test system of series [9] is B8R-reactive CD8 T cells in immunized mice. The settings on record: 10 or 40 mg/kg daily, 7 days.

Each structure is given as a SMILES string. Structures can show the parent of a compound that is named as a salt. Some results are limits rather than exact numbers.

The IC50 is the concentration that inhibits the measured activity by half.

On to `COc1ccc2c(c1)C(c1ccc(F)cc1)=C(CN1CCCC1)CO2` [AX-024], for which the body weight gain entry with CD-1 mice (14 days) was “all mice gained weight at a similar rate”. In the series on CD-1 mice (followed 14 days), the adverse reactions result was “no significant adverse reactions”. In addition, in the series with Swiss albino mice, the “single oral doses without any adverse effects on body weight, organ size or lesions” value is reported as at most 400 mg/kg. Besides, the “concentration at which inhibitory effects were shown” value in [1] (T cell proliferation, anti-CD3) is reported as at most 1 pM. Also, the “potency relative to the AX-000 hit in inhibition of TCR-triggered T cell proliferation” value in [1] (more potent than AX-000) is recorded as > 10,000 fold. In [2], this compound registered a neurological score reached of 0. Besides, the “concentrations at which Nck recruitment to the TCR was inhibited (dose-dependent)” value in [3] is at least 1 nM. Also, in [4], the thymocyte subset numbers result was “did not have a significant impact”. Moreover, in series [5], the IC50 is 1 nM. The “toxicity for rodents after single administration” value in the series on Sprague Dawley rats (doses as high 1600 mg/kg) was “not toxic”. Besides, in the series with Sprague Dawley rats (rats, oral), the “single oral doses without any adverse effects on body weight, organ size or lesions” value is on record as at most 1600 mg/kg. Besides, in [6] (LPS), the “B cell proliferation induced by TLR4 agonist LPS” value is “not inhibited”. In addition, in series [6] (anti-CD40), the “B cell proliferation induced by anti-CD40” value is reported as “not inhibited”. Besides, in series [6] (anti-IgM stimulation, concentrations as high as 10 μM), the “BCR-triggered B cell proliferation” value is given as “not inhibited”. In series [7], the IC50 was around 1 nM. Also, in [8], the “number of genes transcriptionally downregulated” value came out at 1093 genes. Besides, in the series with ectromelia virus (ECTV), the “percentage of IFN-γ responding CD8 T cells upon ex vivo B8R stimulation” value was “indistinguishable from that of the vehicle group”; the “survival of rechallenge with lethal dose 60 days later” value is reported as “resisted the lethal dose, regardless of their AX-024 treatment history”; the “survival rates, first challenge” value is reported as “did not influence survival rates”.
In the case of `CCCCCCCCc1ccc(CCC(N)(CO)CO)cc1` [fingolimod, reference compound], the neurological score reached in series [2] is listed as 0.
For `COc1ccc2c(c1)C(c1ccc(F)cc1)=C(CN1CCCC1)CO2` [AX-024.HCl], the “activation of CD8 T cell response to the viral epitope (IFN-γ production)” value in series [9] is “Neither dose of the drug significantly inhibited”.

These data come from patent publication US20190231745A1, “INHIBITORS OF T CELL RECEPTOR AND USES THEREOF” (Consejo Superior De Investigaciones Cientificas, priority 2017, published 2019).
